Patent publication US20090011410A1, “METHOD FOR TAILORING ADMINISTRATION OF DRUGS BY QUANTITATION OF MRNA” (priority 2004, published 2009)

Tested on: p21 mRNA
Test: drug-induced p21 mRNA expression in whole blood of healthy adults
Assay type: cell-based, human
Conditions: for kinetics of p21 induction / levels of p21 mRNA upon stimulation: 0-8 hours at 37° C., 20 μM BLM; for p21 mRNA expression: healthy leukocytes, 2 hours at 37° C. (FIG. 1)
Description: Blood was obtained from healthy adults and from two leukemic non-Hodgkin's malignant lymphoma patients. U937, KG-1, and Jurkat cells were obtained from American Type Culture Collection (ATCC, Manassas, Va.), and maintained in RPMI 1640 supplemented with 10% fetal calf serum. Of these, U937 cells are a human histiocytic lymphoma cell line, KG-1 cells are a human bone marrow myelogenous leukemia cell line, and Jurkat cells are a human T-cell lymphoblast-like, leukemia derived cell line. […] For human experiments, blood aliquots were stimulated with various anti-cancer drugs at 37° C. for 2 hours, then both p21 and BAX mRNA were measured. The anti-cancer drugs used in this study were clinical drugs, and the concentration of each drug was adjusted to typical blood levels 3-6 hours after intravenous administration.
The mRNA and cDNA were prepared from whole blood. In brief, home-made 96-well filterplates were placed over collection plates, and 150 μl 5 mM Tris, pH 7.4, was applied. Following centrifugation at 120×g for 1 min at 4° C., 50 μl of blood samples were applied to each well and immediately centrifuged at 120×g for 2 min at 4° C., followed by washing of each well with 300 μl PBS once with centrifugation at 2000×g for 5 min at 4° C. Then, 60 μl stock lysis buffer, containing for example 0.5% N-Lauroylsarcosine, 4×SSC, 10 mM Tris HCl, pH 7.4, 1 mM EDTA, 0.1% IGEPAL CA-630, and 1.791 M guanidine thiocyanate, supplemented with 1% 2-mercaptoethanol (Bio Rad, Hercules, Calif., USA), 0.5 mg/ml proteinase K (Pierce, Rockford, Ill., USA), 0.1 mg/ml salmon sperm DNA (5 Prime Eppendorf/Brinkmann, Westbury, N.Y., USA), 0.1 mg/ml E. coli tRNA (Sigma), a cocktail of 10 mM each of the specific reverse primers shown in Table 1, and standard RNA34 oligonucleotides, were applied to the filterplates, followed by incubation at 37° C. for 10 min. The filterplates were then placed over oligo(dT)-immobilized microplates (GenePlate, RNAture), and centrifuged at 2000×g for 5 min at 4° C. Following overnight storage at 4° C., the microplates were washed with 100 μl plain lysis buffer 3 times, followed by 150 μl of wash buffer (0.5 M NaCl, 10 mM Tris, pH 7.4, 1 mM EDTA) 3 times at 4° C. The cDNA was directly synthesized in each well by adding 30 μl buffer containing 1× RT-butter, 1.25 mM each of dNTP, 4 units rRNasin, and 80 units of MMLV reverse transcriptase (Promega) (without primers), and incubation at 37° C. for 2 hours. The specific primer-primed cDNA existed in solution, and oligo(dT)-primed cDNA stayed immobilized in the microplate. For TaqMan PCR (FIGS. 1, 3, 4), the resultant 4 μl cDNA solution was directly transferred to 384-well PCR plates, to which 5 μl of TaqMan universal master mix (ABI) and 1 μl oligonucleotide cocktail (15 μM each of forward and reverse primer, and 3-6 μM TaqMan probe) were applied, and PCR was conducted in PRISM 7900HT (ABI), with one cycle of 95° C. for 10 min followed by 45 cycles of 95° C. for 30 sec, 55° C. for 30 sec, and 60° C. for 1 min. For SYBR Green PCR (see FIG. 6), cDNA was diluted 3-4 fold in water, and 4 μl cDNA solution was directly transferred to 384-well PCR plates, to which 5 μl of a master mix (BioRad, Hercules, Calif.) and 1 μl of oligonucleotide cocktail (15 μM each of forward and reverse primer) were applied, and PCR was conducted in PRISM 7900HT (ABI), with one cycle of 95° C. for 10 min followed by 45 cycles of 95° C. for 30 sec and 60° C. for 1 min. Each gene was amplified in separate wells. The Ct was determined by analytical software (SDS, ABI).
In 8-well strip microtubes, 1.4 μl of 50× concentrations of drugs or controls (phosphate buffered saline (PBS) or DMSO) were added, and stored at −20° C. until use. […] Seventy μl of fresh heparinized whole blood was added into each well in triplicate, and incubated at 37° C. for 2-8 hours with the cap closed. For radiation treatment, blood was stimulated at designated doses using cesium-137.

[1] = heparinized whole blood, 100 μM VP-16 (FIG. 5B)

Molecule	concentration at which significant induction of p21 was observed (0-20 μM BLM, 4 hours at 37° C. (FIG. 7))	p21 induction (BLM at concentrations as low as 0.2 μM, 2 hours at 37° C., all cases (FIG. 10A))	kinetics of p21 induction [1]	levels of p21 mRNA upon stimulation [1]	p21 induction (10 μM VP-16, 2 hours at 37° C. (FIG. 9A))	p21 expression (100 μM VP-16, 2 hours at 37° C. (FIG. 9A))	p21 mRNA expression (10 μM etoposide)	p21 mRNA expression (100 μM etoposide)	peak of transient p21 induction [1] [h]
bleomycin [BLM]	more than 0.1 VM	induced	increased continuously for 8 hours	significantly increased	–	–	–	–	–
COc1cc([C@@H]2c3cc4c(cc3[C@@H](O[C@@H]3O[C@@H]5CO[C@@H](C)O[C@H]5[C@H](O)[C@H]3O)[C@H]3COC(=O)[C@H]23)OCO4)cc(OC)c1O [VP-16, etoposide]	–	–	transient induction	significantly increased	failed to induce p21 in many cases	majority of individuals exhibited increased p21 expression	no significant p21 mRNA expression	expressed significantly	2 to 4
